Laboratory results from patent US8828696B2, “Use of Penicillin G Procaine as a selective antimicrobial agent in the production of alcohol by fermentation” (Lallemand Specialites, Inc, priority 2008, dated 2014).

Test system: Saccharomyces cerevisiae yeast
Assay: Laboratory fermentation trial: formation of alcohol and lactic acid (HPLC)
Type: cell-based
Method: A study was conducted to determine the degree of impact of the fermentation antimicrobial Penicillin G Procaine and Penicillin G potassium during alcohol production by fermentation. The antimicrobial impact was inferred by conducting a series of fermentations and measuring if the above said antibiotics interfered with the cell growth and the fermentation function of Saccharomyces cerevisiae yeast used in the fermentation phase. This study provided analysis of what impact, if any, the Penicillin G Procaine or Penicillin G Potassium has on the yeast during lab scale fermentations, specifically BioFerm® XR yeast from North American Bioproducts Corporation (NABC). This study observed the ability of yeast to replicate and ferment a corn mash substrate with and without the presence of Penicillin G Procaine or Penicillin G Potassium. This study was set up in a series of fermentation vessels. All antibiotic concentrations were tested in triplicate. Cell counts were done on one flask for each treatment at 12, 24, 36 and 48 hours and testing of the fermentation reactions by HPLC was also performed at 12, 24, 36 and 48 hours. The experiment was set as follows: 3. Fermentations were set up using 31% solids corn mash using saccharifying enzymes and the following procedure: A. Yeast Conditioning: • 1. Add 2 g yeast to 10 ml sterile water for each 3 flasks to test, (14 g yeast to 70 ml water) into a sterile 250 ml flask and place in water bath set to 100° F. • 2. Incubate at 100° F. for 30 minutes with occasional mixing. • 3. Remove flasks from water bath and divide suspension between the all flasks for the trial. B. Fermentation Procedure • 1. To prepared mash, add the following. • a. Add 0.58 g urea/liter mash and mix. • b. Add 0.2 ml GA per liter and mix. • 2. Remove sample for background HPLC testing. • 3. Add antibiotic solution to labeled sterile 250 ml flasks. • 4. Add hydrated yeast suspension to mash and mix well. • 5. Add sterile stir bar to each flask and add about 150 ml mash into each 250 ml flask for a total of 21 flasks. • 6. Cover each flask with a gas trap in a sterilized stopper. • 7. Place in a 33° C. water bath with continuous mixing at 280 rpm at 75% power. • 8. Remove sample at 12 hr interval to perform cell count, viability and budding. • 9. Incubate sample up to 48 hours, enough time for complete fermentation • 10. Collect samples at the following times for cell counts and HPLC testing: 12 hours; 24 hours; 36 hours and 48 hours The proper functioning of the yeast is often attributed to the higher efficiency with which it can convert the sugars formed in a fermentation process to the desired alcohol. Also the number of yeast cells in a fermentation mix is an important factor as it will be entropically favored to convert the available sugar molecules to ethanol and carbon dioxide. The sugar in the fermentation mix apart from being converted to ethanol is also used by the yeast for its metabolism and growth and by the concerned “industry normal” Lactobacillus fermentum bacteria converting the sugar to lactic acid.

Row | SMILES | % Lactic Acid (5 ppm, 12 hours) [%] | % wt EtOH (5 ppm, 12 hours) [% wt] | % Lactic Acid (5 ppm, 24 hours) [%] | % wt EtOH (5 ppm, 24 hours) [% wt] | % Lactic Acid (5 ppm, 36 hours) [%] | % wt EtOH (5 ppm, 36 hours) [% wt] | % Lactic Acid (5 ppm, 48 hours) [%] | % wt EtOH (5 ppm, 48 hours) [% wt] | % Lactic Acid (15 ppm, 12 hours) [%] | % wt EtOH (15 ppm, 12 hours) [% wt] | % Lactic Acid (15 ppm, 24 hours) [%] | % wt EtOH (15 ppm, 24 hours) [% wt] | % Lactic Acid (15 ppm, 36 hours) [%] | % wt EtOH (15 ppm, 36 hours) [% wt] | % Lactic Acid (15 ppm, 48 hours) [%] | % wt EtOH (15 ppm, 48 hours) [% wt] | % Lactic Acid (30 ppm, 12 hours) [%] | % wt EtOH (30 ppm, 12 hours) [% wt] | % Lactic Acid (30 ppm, 24 hours) [%] | % wt EtOH (30 ppm, 24 hours) [% wt] | other results
1 | CC1(C)S[C@@H]2[C@H](NC(=O)Cc3ccccc3)C(=O)N2[C@H]1C(=O)O.CCN(CC)CCOC(=O)c1ccc(N)cc1 [Penicillin G Procaine] | 0.082 | 6.21 | 0.098 | 9.24 | 0.108 | 11.14 | 0.104 | 11.94 | 0.085 | 6.16 | 0.099 | 9.13 | 0.106 | 11.13 | 0.099 | 11.98 | 0.081 | 6.34 | 0.098 | 9.16 | % Lactic Acid (30 ppm, 36 hours): 0.103%; % wt EtOH (30 ppm, 36 hours): 11.18 % wt; % Lactic Acid (30 ppm, 48 hours): 0.100%; % wt EtOH (30 ppm, 48 hours): 11.91 % wt
2 | CC1(C)S[C@@H]2[C@H](NC(=O)Cc3ccccc3)C(=O)N2[C@H]1C(=O)[O-].[K+] [Penicillin G Potassium] | 0.083 | 6.16 | 0.100 | 9.12 | 0.108 | 11.12 | 0.104 | 11.89 | 0.081 | 6.05 | 0.100 | 9.15 | 0.105 | 11.05 | 0.100 | 11.92 | 0.082 | 6.07 | 0.096 | 9.13 | % Lactic Acid (30 ppm, 36 hours): 0.106%; % wt EtOH (30 ppm, 36 hours): 11.12 % wt; % Lactic Acid (30 ppm, 48 hours): 0.101%; % wt EtOH (30 ppm, 48 hours): 11.83 % wt
